Literature values, collected in patent US11524087B2, “Microwave assisted methods and systems for surface decontamination” (priority 2019, dated 2022).

Compound: [O][Cl+][O-] [CD, chlorine dioxide]
- short term exposure limit (STEL) (15-minute): 0.25 ppm
- immediately damaging to life and health (IDLH) level (NIOSH): 5 ppm
- permissible exposure limit (PEL) (OSHA): 0.1 ppm
